Like-named read-outs stand apart in the source and are kept apart here.
Legend:
[1] = Phase 1 FIH study: safety and tolerability (TEAEs) in healthy participants; format: in vivo, human
Procedure: A phase 1 first-in-human (FIH) study was conducted at a single site in the United States to evaluate the safety, tolerability, and pharmacokinetics (PK) of Compound (I). Specifically, Compound (I) was tested to evaluate the safety, tolerability, and PK of single and multiple doses in healthy participants and as add-on therapy to antipsychotics in participants with stable schizophrenia. The phase I study also assessed the oral bioavailability of Compound (I) in healthy participants administered a tablet formulation compared to an oral suspension formulation in a fasted state, as well the effect of a high-fat, high-calorie meal on the PK of a single dose of a tablet formulation of Compound (I). Additional exploratory pharmacodynamic analysis was undertaken in patients with stable schizophrenia to inform future studies.
Cohorts in Parts 1 and 2 were randomized to receive either Compound (I) or placebo in a 6:2 ratio. Cohorts in Part 3 were randomized in a 1:1 ratio, while the cohort in Part 4 was randomized in a 2:1 ratio.
Part 1 was a double-blind, SRD study in healthy adults, utilizing an alternate panel design (cohorts 1, 2) and sequential panel design (cohorts 3-5). Cohorts 1 and 2 were part of a two-period, alternating-panel, double-blind study of Compound (I) administered as an oral suspension (5 mg, 10 mg, 20 mg, or 40 mg) or matched placebo, with a washout period of at least 7 days between treatment periods. Cohorts 3-5 were part of a sequential-panel, double-blind study to evaluate the SRDs of Compound (I) (80, 120, or 160 mg, respectively) or matched placebo. Although planned, all subsequent doses after the dose of 80 mg were determined based on emerging safety, tolerability, and PK data from the preceding cohorts.
In Part 2, participants received either placebo on all dosing days or a loading dose of Compound (I) on Day 1 and a maintenance dose of half the initial dose on Days 8, 15 and 22, administered as an oral suspension. Baseline measurements were obtained on Day −2, and study-specific measurements were obtained following oral dose administrations on Days 1, 8, 15, and 22.
Part 3 was a randomized, open-label, single-dose, parallel design study to evaluate the bioavailability of a Compound (I) tablet formulation relative to a Compound (I) oral suspension formulation and the effect of food on the PK in healthy participants. The immediate release tablet contained mannitol, microcrystalline cellulose, and other commonly used excipients. Participants were randomized 1:1 to receive a single 40 mg dose of Compound (I) as a tablet after either 10 h overnight fast, or 30 min after beginning ingestion of a high-fat, high-calorie breakfast.
Safety measurements used in the phase 1 study included treatment-emergent adverse events (TEAEs), physical examinations, weight, height, BMI, vital signs, clinical laboratory evaluations, pregnancy monitoring, and ECG procedures.
TEAEs were defined as any adverse event that occurred or worsened after receiving the first dose of Compound (I) and within 6 weeks after the last dose of Compound (I). Participants experiencing two or more different TEAEs were counted only once. Frequent TEAEs were defined as adverse events that occurred in at least two participants in any treatment. Participants were evaluated with respect to mood and alertness (BL-VAS) and suicidality (C-SSRS).

[2] = Phase 1 FIH study Part 4: plasma pharmacokinetics in patients with stable schizophrenia; format: in vivo, human
Procedure: Part 4 was a double-blind, weekly single dosing, parallel group design in patients with stable schizophrenia.
Participants were randomly assigned 2:1 to receive either Compound (I) or placebo. For the participants receiving Compound (I), a loading dose was administered on Day 1, and a maintenance dose, at half the initial dose, on Days 8, 15, and 22. Participants in the placebo group received placebo on all study dosing days.
Plasma and urine concentrations of Compound (I) and urine concentrations of cortisol and 6β-hydroxycortisol were measured by high performance liquid chromatography with tandem mass spectrometry. One 4 mL blood sample was collected per scheduled assessment. For participants receiving placebo, blood samples were analyzed only at pre-dose and around the time Cmax occurred (as emerging from the measurements of the first dose group) to ensure that no additional participants could have been on active treatment. Serial urine samples were collected for Part 1 cohorts 1-5 and Part 2 cohorts 1-4. Urine samples for participants receiving placebo were not analyzed. Urine samples were collected for the determination of cortisol and 6β-hydroxycortisol for Part 2 cohorts 1-4 and for all patients in Part 4. Samples for participants randomized to placebo were analyzed for these parameters.
Pharmacokinetic parameters were determined from the concentration-time profiles for all evaluable participants. Actual sampling times were used in all computations. pharmacokinetic parameters were calculated using non-compartmental analysis using Phoenix WinNonLin v8.0 or SAS v 9.4.
One participant in the 160/80 mg Compound (I) cohort in Part 4 (MRD study with patients with stable schizophrenia) missed the Day 15 dose. Pharmacokinetic concentrations for Day 22 for this participant were excluded from the mean plasma-concentration time profile and associated pharmacokinetic parameters were excluded from statistical analysis.
One participant in the 160/80 mg Compound (I) cohort in Part 4 (MRD study with patients with stable schizophrenia) terminated the study following dosing on Day 1. The participant's PK parameters were excluded from statistical analysis.
Another participant in the 160/80 mg Compound (I) cohort in Part 4 (MRD study with patients with stable schizophrenia) terminated the study following dosing on Day 22. Accordingly, all PK parameters for the participant other than tmax, Cmax, observed plasma concentration at the end of a dosing interval, AUC24, AUC48, and AUC96 were excluded from summary and statistical analysis.

[3] = Part 2 MRD, 40/20 mg, N = 6, participants (percent)
[4] = Part 2 MRD, 80/40 mg, N = 6, participants (percent)
[5] = Part 2 MRD, 120/60 mg, N = 6, participants (percent)
[6] = Part 2 MRD, 160/80 mg, N = 6, participants (percent)
[7] = stable schizophrenia, oral, 160/80 mg, Day 22, N 14

## C[C@H](NC(=O)Cn1nnc2ccccc2c1=O)c1ccc(OC(F)(F)F)cc1 [Compound (I), (S)-2-(4-oxobenzo[d][1,2,3]triazin-3(4H)-yl)-N-(1-(4-(trifluoromethoxy)phenyl)ethyl)acetamide]
[1]; Part 1 (SRD)
  TEAEs related to the study drug (investigator): None of the TEAEs were considered to be related to the study drug
[1]; Part 1 (SRD), participants who received Compound (I)
  participants who experienced a TEAE: 20.0%
[1]; [3]
  Any TEAE: 4 (66.7)
  TEAE Mild: 4 (66.7)
  TEAE Not related: 4 (66.7)
[1]; [4]
  Any TEAE: 4 (66.7)
  TEAE Mild: 4 (66.7)
  TEAE Not related: 3 (50.0)
  TEAE Related: 1 (16.7)
[1]; [5]
  Any TEAE: 3 (50.0)
  TEAE Mild: 2 (33.3)
  TEAE Moderate: 1 (16.7)
  TEAE Not related: 3 (50.0)
[1]; [6]
  Any TEAE: 5 (83.3)
  TEAE Mild: 5 (83.3)
  TEAE Not related: 2 (33.3)
  TEAE Related: 3 (50.0)
[1]; Part 3, single dose after overnight fast of at least 10 h, tablet
  participants who experienced a TEAE: 11.1%
[1]; Part 3, single dose following high-fat, high-calorie breakfast, tablet
  participants who experienced a TEAE: 22.2%
[1]; phase 1 study, all parts
  discontinuations due to TEAEs: No discontinuations due to TEAEs occurred
[1]; phase 1 study, all parts, 114 randomized participants
  deaths, serious adverse events, or other significant TEAEs: No deaths, serious adverse events, or other significant TEAEs were reported
[1]; phase 1 study, single and repeated oral doses, healthy volunteers and patients with stable schizophrenia
  tolerability: generally well-tolerated
[1]; phase 1 study, frequency appeared to increase with higher doses
  headache frequency vs placebo: more frequently with Compound (I) than with placebo
[2]; Part 4 MRD, schizophrenia participants
  steady-state mean t1/2z: 334 h
[2]; Part 4 vs healthy
  peak systemic exposure lower in schizophrenia participants compared with healthy participants: 23-30%
  total systemic exposure lower for schizophrenia participants compared with healthy participants: 22-27%
[2]; human, plasma, oral, Part 4 MRD, 160/80 mg, up to 168 h post-dose, read-out: Mean Cmax (SD)
  Cmax: 1270 ng/mL
[2]; human, plasma, oral, Part 4 MRD, schizophrenia patients, read-out: median tmax
  Tmax: 1.8 h
[2]; human, plasma, po, stable schizophrenia, oral, 160/80 mg, Day 1, N 15
  AUC(0-t): 149 µg·h/mL
[2]; human, plasma, po, stable schizophrenia, oral, 160/80 mg, Day 1, N 15, read-out: AUC24 (mean)
  AUC: 20.4 µg·h/mL
[2]; human, plasma, po, stable schizophrenia, oral, 160/80 mg, Day 1, N 15, read-out: AUC96 (mean)
  AUC: 90.4 µg·h/mL
[2]; human, plasma, po, stable schizophrenia, oral, 160/80 mg, Day 1, N 15, read-out: AUCτ (mean)
  AUC: 149 µg·h/mL
[2]; human, plasma, po, stable schizophrenia, oral, 160/80 mg, Day 1, N 15, read-out: Cmax (mean)
  Cmax: 1270 ng/mL
[2]; human, plasma, po, stable schizophrenia, oral, 160/80 mg, Day 1, N 15, read-out: tmax (median)
  Tmax: 2 h
[2]; human, plasma, po, stable schizophrenia, oral, 160/80 mg, Day 22, N 14
  AUC(0-t): 660 µg·h/mL
[2]; human, plasma, po, stable schizophrenia, oral, 160/80 mg, Day 22, N 14, read-out: AUC24 (mean)
  AUC: 35.5 µg·h/mL
[2]; human, plasma, po, stable schizophrenia, oral, 160/80 mg, Day 22, N 14, read-out: AUC96 (mean)
  AUC: 140 µg·h/mL
[2]; human, plasma, po, stable schizophrenia, oral, 160/80 mg, Day 22, N 14, read-out: AUCτ (mean)
  AUC: 227 µg·h/mL
[2]; human, plasma, po, stable schizophrenia, oral, 160/80 mg, Day 22, N 14, read-out: Cmax (mean)
  Cmax: 1880 ng/mL
[2]; human, plasma, po, stable schizophrenia, oral, 160/80 mg, Day 22, N 14, read-out: tmax (median)
  Tmax: 1.8 h
[2]; human, plasma, stable schizophrenia, oral, 160/80 mg, Day 22, N 14, read-out: Vz/F (mean)
  Vd/F: 172 L
[2]; [7]
  CL/F (mean): 365.5 mL/h
  Cav,ss (mean): 1352.6 ng/mL
  Ctrough (mean): 950.4 ng/mL
  t1/2z (mean): 333.8 h
